According to patent US6348483B1, “Use of derivatives of methylene-bis-oxazolidine and compositions obtained thereby” (Air Liquide Sante (International), priority 1998, dated 2002):
In brackets after ≈: the same amount, converted by molar mass.

Experiments:
Format in all cases: cell-based
[1] = test system: Chlorella fusca (CF); test: Algistatic finish (SM 023) of pure acrylate house paint; set-up: key to Surface colonization: −: no growth; +: some growth; ++: moderate growth; +++: strong growth
Description: In separate batches, the test concentrations of the active compounds/products were incorporated into the house paint, and the fungicidal and/or algistatic finish was determined using the stated test methods.
Incorporation and testing were carried out according to the methods SM 022 and SM 023 below.
This laboratory method was employed for determining the resistance of house coatings to colonization by algae. For this method, house coatings on standardized paper are used as test substrate and Chlorella fusca is used as test alga. It is furthermore possible to use pure cultures of other algae species of practical relevance.
The experiments were carried out in Petri dishes on agar nutrient media.
50 g of the material to be finished were, in separate batches, mixed with various concentrations of the algicide to be examined and homogenized for 3-5 min using a basket stirrer.
Paper carrier materials having the dimensions 90×270 mm (Schleicher & Schüll No. 2589 B/X 24078) were coated with the test material. The paint and/or render samples were coated to a wet-layer thickness of 250 μm by knife coating. […] In the case of renders, the layer thickness depends, as in practice, on the particle size. The coated carrier materials, hereinbelow referred to as test bodies, were subsequently dried in a horizontal position for five days.
[…] The cross section of the container for the watering in the direction of flow was 1000±500 cm^2.
From the pretreated test bodies, three sample bodies having a diameter of 5 cm were punched out and sterilized in a Co^60 source using at least 10 kGy.
Aseptically, the samples were placed onto the algae nutrient media, and the centre of the sample was inoculated with 5 ml of each algae suspension.
The mixture of the algae suspensions was spread on the surface using a Drigalski spatula or an offset sterile glass rod.
During the growth phase at 22±2° C., the coated samples in the Petri dishes were irradiated with light of an intensity of about 1000 Lux (customary fluorescent tubes, type D 67 daylight). A cycle of in each case 12 hours of irradiation and 12 hours of storage in the dark was used.
The colonization of the samples by algae was examined and evaluated after two weeks. Evaluation was carried out visually. The evaluation of the samples was based on the following evaluation scale:
No growth of algae on the test bodies
Formation of an inhibitory zone or growth of algae on the nutrient medium up to the edge of the test bodies
Visible colonization of the test body by algae

[2] = test system: Fungi suspension; test: Boko test in water-diluted cutting fluids, fungi suspension
Description: In separate batches, in each case 100 ml of the water-diluted cutting fluid to be preserved were admixed with various concentrations of the preservatives to be examined. The growth control used was in each case an unpreserved sample. Two days after the incorporation of the preservatives, the test batches were infected for the first time using 1 ml of an inoculating solution. The inoculating solution used was a suspension of the germs listed below (cultivated on nutrient media and then adapted to water-diluted cutting fluids). […] [table] The test batches were subsequently inoculated two times a week and plated onto agar plates two times per week, the first smear being carried out immediately prior to the new inoculation. The microbial growth on the smears was assessed after incubation at 25° C. for three days. […] The preservative effect of the individual product concentrations was assessed in a semiquantitative method by the colonization of the individual smears using the classification from − to +to +++. Growth was differentiated according to bacteria, yeasts and moulds. The test was usually carried out for twelve inoculation cycles or interrupted after repeated +++growth. The cutting fluids Shell Dromus BX or Almasol EP from Castrol or Rondocor Kompakt from Consulta were examined as 4% strength by weight emulsions in tap water from the city of Norderstedt. Inoculation was carried out using a suspension of bacteria or fungi or a mixed suspension of bacteria and fungi.

[3] = test system: Chlorella fusca; test: Serial dilution test according to DGHM (MIC); settings: aqueous 2% by weight strength solution in fully deionized water; unit assumed
Excerpt: (§1) Solutions of in each case 2% strength by weight in fully deionized water were examined against selected bacteria and/or yeasts and/or fungi and/or algae using the serial dilution test according to DGHM [German Society for Hygiene and Microbiology]. MIC values of the aqueous 2% by weight strength solutions: […]

[4] = test system: Penicillium funiculosum; test: Serial dilution test according to DGHM (MIC); settings: aqueous 2% by weight strength solution in fully deionized water; unit assumed
Excerpt: as §1

[5] = test system: Alternaria alternata; test: Serial dilution test according to DGHM (MIC); settings: aqueous 2% by weight strength solution in fully deionized water; unit assumed
Excerpt: as §1

[6] = test system: E. coli; test: Serial dilution test according to DGHM (MIC); settings: aqueous 2% by weight strength solution in fully deionized water; unit assumed
Excerpt: as §1

[7] = test system: Pseudomonas aeruginosa; test: Serial dilution test according to DGHM (MIC); settings: aqueous 2% by weight strength solution in fully deionized water; unit assumed
Excerpt: as §1

[8] = test system: Fusarium oxysporum; test: Serial dilution test according to DGHM (MIC); settings: aqueous 2% by weight strength solution in fully deionized water; unit assumed
Excerpt: as §1

[9] = test system: Cand. albicans; test: Serial dilution test according to DGHM (MIC); settings: aqueous 2% by weight strength solution in fully deionized water; unit assumed
Excerpt: as §1

[10] = test system: Asperg. niger; test: Serial dilution test according to DGHM (MIC); settings: aqueous 2% by weight strength solution in fully deionized water; unit assumed
Excerpt: as §1

[11] = test system: Rhodotorula mucilaginosa; test: Serial dilution test according to DGHM (MIC); settings: aqueous 2% by weight strength solution in fully deionized water; unit assumed
Excerpt: as §1

[12] = without stress due to 72 hours leaching (so in the source), use concentration 0.5%
[13] = without stress due to 72 hours leaching (so in the source), use concentration 1.0%
[14] = without stress due to 72 hours leaching (so in the source), use concentration 2.0%
[15] = without stress due to leaching, use concentration 0.5%
[16] = without stress due to leaching, use concentration 1.0%
[17] = without stress due to leaching, use concentration 2.0%

CC1CN(CN2COC(C)C2)CO1 (centres unmarked) [Mar 71, 3,3′-methylenebis-(5-methyloxazolidine)]
Algicidal action (in words) ([1]; with stress due to leaching): little algicidal action in practice
Inhibitory zone [1, 12]: 0 mm
Surface colonization [1, 12]: ++
Inhibitory zone [1, 13]: 0 mm
Surface colonization [1, 13]: ++
Inhibitory zone [1, 14]: 0 mm
Surface colonization [1, 14]: +++
Inhibitory zone [1, 15]: 12 mm
Surface colonization [1, 15]: −
Inhibitory zone [1, 16]: >18 mm
Surface colonization [1, 16]: −
Inhibitory zone [1, 17]: >18 mm
Surface colonization [1, 17]: −
Algicidal activity (in words) ([1]; without stress due to leaching, use concentration from 0.5 to 2% by weight): good algicidal activity
Number of inoculation cycles passed on inoculation with Fungi suspension ([2]; Cutting fluid Almasol EP, use concentration 0.05% by weight): >12
Number of inoculation cycles passed on inoculation with Fungi suspension ([2]; Cutting fluid Almasol EP, use concentration 0.10% by weight): >12
Number of inoculation cycles passed on inoculation with Fungi suspension ([2]; Cutting fluid Almasol EP, use concentration 0.15% by weight): >12
Number of inoculation cycles passed on inoculation with Fungi suspension ([2]; Cutting fluid Rondocor Kompakt, use concentration 0.05% by weight): >12
Number of inoculation cycles passed on inoculation with Fungi suspension ([2]; Cutting fluid Rondocor Kompakt, use concentration 0.10% by weight): >12
Number of inoculation cycles passed on inoculation with Fungi suspension ([2]; Cutting fluid Rondocor Kompakt, use concentration 0.15% by weight): >12
Number of inoculation cycles passed on inoculation with Fungi suspension ([2]; Cutting fluid Shell Dromus BX, use concentration 0.05% by weight): >12
Number of inoculation cycles passed on inoculation with Fungi suspension ([2]; Cutting fluid Shell Dromus BX, use concentration 0.10% by weight): >12
Number of inoculation cycles passed on inoculation with Fungi suspension ([2]; Cutting fluid Shell Dromus BX, use concentration 0.15% by weight): >12
MIC value CF [3]: 0.39 mg/L (≈ 2.09 µM)
MIC value PF [4]: 1.56 mg/L (≈ 8.38 µM)
MIC value AL [5]: 6.25 mg/L (≈ 33.6 µM)
MIC value EC [6]: 6.25 mg/L (≈ 33.6 µM)
MIC value PS [7]: 6.25 mg/L (≈ 33.6 µM)
MIC value FO [8]: 1.56 mg/L (≈ 8.38 µM)
MIC value CA [9]: > 6.25 mg/L
MIC value AN [10]: 6.25 mg/L (≈ 33.6 µM)
MIC value RM [11]: 3.12 mg/L (≈ 16.8 µM)
